Experimental data: US9624211B2, “Anti-cancer compounds” (Board of Regents, The University of Texas System, priority 2013, dated 2017)

What was measured:
PC3 cells = test: Cell cycle by PI staining and flow cytometry; format: cell-based, human; conditions: PC3 cells treated for 2 days
Method: FIGS. 12A-D. Skp2 inhibitor triggers cell growth suppression and cell cycle arrest at G2/M phase, related to FIG. 4. (FIG. 12A) The impact of Skp2 inhibitor on growth suppression in various cell lines. A panel of cancer cell lines were treated with various doses of Skp2 inhibitor (#25) for 4 days, and viable cell numbers were counted using hemocytometer. Growth inhibition (IC50) by compound #25 was derived from the cell counting using hemocytometer. (FIG. 12B) PC3 cells were treated with or without compound #25 for 2 days and cell cycle were determined by PI staining, followed by flow cytometry analysis. G1 phase=61.3±0.3%, S phase=15.6±0.6% and G2/M phase=20.3±0.3% in DMSO-treated PC3 cells while G1 phase=50.1±0.9%, S phase=13.3±0.8% and G2/M phase=24.5±0.3% in #25-treated PC3 cells. (FIG. 12C) Control- or Skp2-knockdown PC3 cells were treated with or without compound #25 for 2 days and cell cycle were determined by PI staining, followed by flow cytometry analysis. Two clones of Skp2 shRNA were used in this assay. G1 phase=53.1±0.8% and S phase=15.9±0.9% and G2/M phase=26.1±0.6% in control-knockdown PC3 cells, G1 phase=49.5±0.4%, S phase=13.6±0.7% and G2/M phase=29.1±0.5% in one clone of Skp2-silenced PC3 cells, G1 phase=54.5±1.6%, S phase=10.6±0.4% and G2/M phase=28.8±0.2% in another clone of Skp2-silenced PC3 cells. (FIG. 12D) WT or Skp2−/− MEFs were treated with or without compound #25 for 2 days, and cell cycle was determined by PI staining, followed by flow cytometry analysis. G1 phase=50.5±4.6%, S phase=9.1±0.6% and G2/M phase=27.8±0.9% in WT MEFs while G1 phase=27.7±1.3%, S phase=8.2±1.9% and G2/M phase=39.0±1.6% in Skp2−/− MEFs. Results are presented as mean values ±S.D. * indicates p<0.05, ** indicates p<0.01. Results from treatment groups were compared to vehicle-treated group.

Hep3B (liver) = test: Cell survival assay, Hep3B; format: cell-based, human
Method: (§1) For Skp2 inhibitor administration, 5-10×10^3 of cells with were seeded in 12 wells in triplicate, 24 h later, treated with compound #25 (refreshed every two days). Four days later, cells were harvested, stained with trypan blue, and viable cells were counted directly under the microscope using hemocytometer. For doxorubicin treatment, 8×10^3 of PC3 cells with were seeded in 12 wells in triplicate, 24 h later, treated with various dose of compound #25 in the presence or absence of 10 nM doxorubicin or 25 ng/ml cyclophosphamide for four and three days, respectively (refreshed every two days). After treatment, cells were harvested, stained with trypan blue, and viable cells were counted directly under the microscope using hemocytometer. Cellular senescence was determined by assessing SA-b-gal activity using senescence detection kit according to manufacturers' standard procedures (Calbiochem).

H3299 (lung) = test: Cell survival assay, H3299; format: cell-based, human
Method: as §1

[1] = system: EGF-mediated Akt phosphorylation and activation; test: EGF-mediated Akt phosphorylation, immunoblotting; format: cell-based; conditions: various cancer cell lines
From the text: Cells were lysed with RIPA buffer in the presence of protease inhibitor cocktail (Roche). The following antibodies were used for immunoblotting analysis: anti-Skp2 (Invitrogen), anti-Xpress (Invitrogen), anti-p27 (BD transduction laboratories), anti-p21 (Santa Cruz), anti-β-actin (Sigma), anti-α-tubulin (Sigma), anti-phospho-Akt (Thr308) (Cell Signaling), anti-phospho-Akt (Ser473) (Cell Signaling), and anti-HA (Convance). For immunohistochemistry, tissues were fixed in 10% formalin and embedded in paraffin in accordance with standard procedures. Sections were stained with anti-Skp2 (Invitrogen), anti-p27 (Epitomics), anti-phosphoAkt (SerS473) (Cell signaling), anti-Glut1 (Abcam), and anti-Ki67 (Abcam). TUNEL staining was performed by using in situ cell death detection kit-POD (Roche).

[2] = system: Skp2 Trp97Ala and Asp98Ala mutants binding to Skp1; test: In vitro Skp2-Skp1 binding assay with Skp2 mutants; conditions: FIG. 2D
Method: For in vitro GST-Skp1 and Skp2 interaction, GST-Skp1 proteins purified from the bacterial lysates of BL21 competent cells transformed with pGEX-4X1-Skp1 using the Glutathione-Agarose beads according to the manufacturer's standard procedures. The GST-Skp1 proteins bound to glutathione Sepharose beads (Amersham Biosciences) were then incubated with the in vitro translated [35^S]-Skp2 for 2 hours at 4° C. in the interaction buffer with or without compound #25 (20 mM HEPES, PH 7.9, 150 mM KCl. 5 mM EDTA, 0.5 mM DTT, 0.1% (v/v) Nonidet p-40, 0.1% (w/v) BSA, 1 mM PMSF, and 10% Glycerol), washed by the NETN buffer (20 mM Tris, pH 8.0, 100 mM NaCl, 6 mM MgCl2, 1 mM EDTA, 0.5% Nonidet P-40, 1 mM DTT, 8% glycerol, 1 mM PMSF) 4 times, and subjected to 8% SDS-PAGE, followed by autoradiography.

FBW7 = molecular target: T1, FBW7 (Homo sapiens, UniProt Q969H0); test: In vivo ubiquitination assay, FBW7 substrates; format: cell-based; conditions: in the presence of proteasome inhibitor
T1 construct: expressed in transfected cells; host or cells: 293T
Method: (§2) In vivo and in vitro ubiquitination assays were performed as described with modification (Lin et al., 2009; Yang et al., 2009). For in vitro ubiquitination assay, recombinant GST-Akt proteins were expressed, purified and eluted from the bacterial lysates of BL21 competent cells. Flag-Skp2 SCF complex were expressed in 293T cells, immunoprecipitated by anti-Flag antibody, and eluted from Protein A/G beads using Flag peptides according to manufacturers' standard procedures. Purified GST-Akt and Flag-SCF proteins were incubated for 3 h at 37° C. in the absence and presence of Skp2 inhibitor. After incubation, protein mixtures were diluted in E1A Buffer and the supernatant fluid was precleared with Protein A/G beads for 1 h, and immunoprecipitated overnight with anti-Flag antibody, after which Protein A/G beads were added for an additional 1 h. Beads were washed 4 times with E1A Buffer. Proteins were eluted in SDS-sample buffer and subjected to immunoblotting analysis. For in vivo ubiquitination assay, 293T cells were transfected with the indicated plasmids and cultured in the absence or presence of Skp2 inhibitor for 48 h. 6 h before harvest, cells were cultured in the presence of MG132. After cell harvest, cells were lysed by the denatured buffer (6M guanidine-HCl, 0.1M Na2HPO4/NaH2PO4, 10 mM imidazole). […]

[3] = molecular target: T2, Skp2-mediated Akt ubiquitination (Homo sapiens, UniProt Q13309); test: In vivo Akt ubiquitination assay; format: cell-based; conditions: FIG. 1G
T2 construct: expressed in transfected cells; host or cells: 293T
Method: as §2

T1 sequence (Q969H0 whole entry, species assumed): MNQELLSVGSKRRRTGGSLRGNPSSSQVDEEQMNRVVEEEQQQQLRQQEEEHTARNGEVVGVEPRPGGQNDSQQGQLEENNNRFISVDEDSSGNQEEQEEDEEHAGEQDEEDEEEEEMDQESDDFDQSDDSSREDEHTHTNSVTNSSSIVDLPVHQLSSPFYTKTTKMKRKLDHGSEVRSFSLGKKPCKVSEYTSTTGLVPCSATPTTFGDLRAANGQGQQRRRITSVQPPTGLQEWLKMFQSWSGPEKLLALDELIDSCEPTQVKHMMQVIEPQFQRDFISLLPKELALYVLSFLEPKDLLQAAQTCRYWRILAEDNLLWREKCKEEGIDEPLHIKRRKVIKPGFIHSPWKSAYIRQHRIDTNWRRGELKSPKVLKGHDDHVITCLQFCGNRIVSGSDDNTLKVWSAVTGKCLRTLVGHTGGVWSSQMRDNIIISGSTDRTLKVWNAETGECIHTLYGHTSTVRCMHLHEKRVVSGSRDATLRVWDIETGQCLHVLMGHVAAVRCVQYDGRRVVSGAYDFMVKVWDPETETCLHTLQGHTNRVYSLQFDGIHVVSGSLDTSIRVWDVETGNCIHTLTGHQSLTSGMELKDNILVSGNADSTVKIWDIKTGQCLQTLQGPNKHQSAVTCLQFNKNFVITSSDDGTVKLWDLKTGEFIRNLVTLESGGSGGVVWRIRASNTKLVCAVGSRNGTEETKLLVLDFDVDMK
T2 sequence (Q13309 whole entry): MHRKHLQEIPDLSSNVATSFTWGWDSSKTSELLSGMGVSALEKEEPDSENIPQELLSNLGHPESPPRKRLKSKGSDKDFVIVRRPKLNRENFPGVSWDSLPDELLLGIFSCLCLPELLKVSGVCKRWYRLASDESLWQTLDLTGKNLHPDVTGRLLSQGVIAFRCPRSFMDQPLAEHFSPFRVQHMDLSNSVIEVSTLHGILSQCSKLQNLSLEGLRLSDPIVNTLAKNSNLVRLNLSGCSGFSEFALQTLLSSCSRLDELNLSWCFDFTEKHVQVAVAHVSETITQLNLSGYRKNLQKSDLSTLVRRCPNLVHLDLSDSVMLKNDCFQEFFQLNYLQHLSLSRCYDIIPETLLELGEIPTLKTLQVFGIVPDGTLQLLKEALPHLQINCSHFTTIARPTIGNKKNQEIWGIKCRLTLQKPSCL

- binding of Skp2 Trp97Ala and Asp98Ala mutants to Skp1 [2]: unable to inhibit
- FBW7-mediated ubiquitination (c-Jun, MCL-1) (FBW7): no appreciable effect
SMILES: CCc1cc2c(=O)c(-c3nc4ccccc4s3)coc2c(CN2CCCCC2)c1O [compound #25, 3-(1,3-benzothiazol-2-yl)-6-ethyl-7-hydroxy-8-(1-piperidinylmethyl)-4H-chromen-4-one]
- G1 phase (PC3 cells): 50.1±0.9%
- G2/M phase (PC3 cells): 24.5±0.3%
- S phase (PC3 cells): 13.3±0.8%
- cell viability (Hep3B (liver)): potent suppressive effect on viability
- cell viability (H3299 (lung)): potent suppressive effect on viability
- EGF-mediated Akt phosphorylation and activation [1]: profoundly inhibited
- Skp2-mediated Akt ubiquitination in cells [3]: inhibited Skp2-mediated Akt ubiquitination
